Results on 28 molecules are retold here after ChEMBL document CHEMBL4837263, “N-Aromatic-Substituted Indazole Derivatives as Brain-Penetrant and Orally Bioavailable JNK3 Inhibitors” (ACS Med Chem Lett, 2021).

The target of series [1] is Mitogen-activated protein kinase 9 (Homo sapiens, UniProt P45984). The series is described as follows: Inhibition of JNK2 (unknown origin) using biotinylated FL-ATF-2 as substrate measured after 22 mins by homogeneous time-resolved fluorescence analysis.
Series [2] is described as follows: Stability in mouse liver microsome assessed as half life. The class given is ADME. As to conditions: liver microsomes.
The next series deals with SH-SY5Y. The series is described as follows: Cytotoxicity against human SH-SY5Y cells assessed as reduction in cell viability at 10 uM measured after 48 hrs by MTT assay. The class given is cell-based.
The nature of series [3]: Stability in human liver microsome assessed as half life. The class given is ADME. The note with it: liver microsomes.
Series [4] can be described thus: Selectivity index, ratio of IC50 for p38 alpha (unknown origin) to IC50 for JNK3 (unknown origin).
Series [5] addresses Mitogen-activated protein kinase 10 (Homo sapiens, UniProt P53779). The series is described as follows: Inhibition of JNK3alpha1 (unknown origin) using biotinylated FL-ATF-2 as substrate measured after 22 mins by homogeneous time-resolved fluorescence analysis.
Series [6] in a line: Selectivity index, ratio of IC50 for JNK1 (unknown origin) to IC50 for JNK3 (unknown origin).
In series [7] the target is Mitogen-activated protein kinase 14 (Homo sapiens, UniProt Q16539). Briefly: Inhibition of p38 alpha (unknown origin) using biotinylated FL-ATF-2 as substrate measured after 22 mins by homogeneous time-resolved fluorescence analysis.
Series [8] addresses Mitogen-activated protein kinase 8 (Homo sapiens, UniProt P45983). Briefly: Inhibition of JNK1 (unknown origin) using biotinylated FL-ATF-2 as substrate measured after 22 mins by homogeneous time-resolved fluorescence analysis.
The target in series [9] is Voltage-gated inwardly rectifying potassium channel KCNH2 (Homo sapiens, UniProt Q12809). The series is described as follows: Inhibition of human ERG expressed in CHO cells at -80 mV holding potential by automated Qpatch electrophysiological method.
The nature of series [10]: Selectivity index, ratio of IC50 for JNK2 (unknown origin) to IC50 for JNK3 (unknown origin).
The target of another series is CYP3A4 (Homo sapiens, UniProt P08684). Briefly: Inhibition of CYP3A4 (unknown origin) assessed as midazolam hydroxylation to 1'-hydroxy midazolam at 10 uM by cocktail inhibition assay relative to control. The note with it: probe midazolam (hydroxylation to 1'-hydroxy midazolam).
A further series has as its target T1, CYP1A2 (Homo sapiens, UniProt P05177).
T1 sequence (P05177 whole entry): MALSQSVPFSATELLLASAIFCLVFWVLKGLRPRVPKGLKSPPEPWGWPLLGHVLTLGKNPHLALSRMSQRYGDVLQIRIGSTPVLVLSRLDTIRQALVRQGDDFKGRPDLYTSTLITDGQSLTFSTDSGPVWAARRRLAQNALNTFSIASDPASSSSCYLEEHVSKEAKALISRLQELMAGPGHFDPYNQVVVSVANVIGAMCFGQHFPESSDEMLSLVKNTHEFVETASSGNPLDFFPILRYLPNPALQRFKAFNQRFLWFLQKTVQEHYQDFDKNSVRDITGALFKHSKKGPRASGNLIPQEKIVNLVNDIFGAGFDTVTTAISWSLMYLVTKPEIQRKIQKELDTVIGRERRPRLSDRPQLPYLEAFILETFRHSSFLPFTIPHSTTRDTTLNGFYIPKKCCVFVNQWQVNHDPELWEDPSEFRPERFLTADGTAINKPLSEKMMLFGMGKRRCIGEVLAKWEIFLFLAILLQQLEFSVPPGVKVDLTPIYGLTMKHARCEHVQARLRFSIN
Briefly: Inhibition of CYP1A2 (unknown origin) assessed as phenaceten demethylation to acetaminophen at 10 uM by cocktail inhibition assay relative to control. As to conditions: probe phenacetin (demethylation to acetaminophen).

The next series deals with CYP2C9 (Homo sapiens, UniProt P11712). The series is described as follows: Inhibition of CYP2C9 (unknown origin) assessed as tolbutamide hydroxylation to hydrocytolbutamide at 10 uM by cocktail inhibition assay relative to control. As to conditions: probe tolbutamide (hydroxylation to hydroxytolbutamide).
A further series has as its target CYP2D6 (Homo sapiens, UniProt P10635). The series is described as follows: Inhibition of CYP2D6 (unknown origin) assessed as bufuralol hydroxylation to 4'-hydroxy bufuralol at 10 uM by cocktail inhibition assay relative to control. As to conditions: probe bufuralol (hydroxylation to 4'-hydroxy bufuralol).

Mitogen-activated protein kinase 8, sequence (P45983 whole entry): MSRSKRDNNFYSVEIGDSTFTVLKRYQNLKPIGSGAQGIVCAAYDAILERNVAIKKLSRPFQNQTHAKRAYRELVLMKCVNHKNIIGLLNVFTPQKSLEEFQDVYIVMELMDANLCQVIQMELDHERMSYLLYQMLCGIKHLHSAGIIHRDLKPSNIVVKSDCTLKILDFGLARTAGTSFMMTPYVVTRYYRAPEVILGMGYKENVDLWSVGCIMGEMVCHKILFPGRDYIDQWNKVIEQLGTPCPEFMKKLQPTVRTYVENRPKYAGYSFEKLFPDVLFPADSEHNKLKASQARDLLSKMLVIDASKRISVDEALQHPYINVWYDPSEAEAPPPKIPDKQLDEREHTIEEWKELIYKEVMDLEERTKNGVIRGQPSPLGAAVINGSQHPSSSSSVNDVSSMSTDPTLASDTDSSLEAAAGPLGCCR
Mitogen-activated protein kinase 10, sequence (P53779 whole entry): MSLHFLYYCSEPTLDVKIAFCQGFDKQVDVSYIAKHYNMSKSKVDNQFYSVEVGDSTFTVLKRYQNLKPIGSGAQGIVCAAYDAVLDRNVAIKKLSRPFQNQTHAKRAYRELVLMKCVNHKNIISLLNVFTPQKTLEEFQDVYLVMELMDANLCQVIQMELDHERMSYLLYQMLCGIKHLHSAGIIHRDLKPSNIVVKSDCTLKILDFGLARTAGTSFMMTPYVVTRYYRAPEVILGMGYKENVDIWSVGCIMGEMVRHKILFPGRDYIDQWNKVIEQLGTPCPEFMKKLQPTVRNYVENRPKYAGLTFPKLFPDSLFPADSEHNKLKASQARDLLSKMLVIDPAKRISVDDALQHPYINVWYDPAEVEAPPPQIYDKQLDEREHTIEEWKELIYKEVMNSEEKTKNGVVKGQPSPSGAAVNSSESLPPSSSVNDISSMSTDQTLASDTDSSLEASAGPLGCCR
Voltage-gated inwardly rectifying potassium channel KCNH2, sequence (Q12809 whole entry): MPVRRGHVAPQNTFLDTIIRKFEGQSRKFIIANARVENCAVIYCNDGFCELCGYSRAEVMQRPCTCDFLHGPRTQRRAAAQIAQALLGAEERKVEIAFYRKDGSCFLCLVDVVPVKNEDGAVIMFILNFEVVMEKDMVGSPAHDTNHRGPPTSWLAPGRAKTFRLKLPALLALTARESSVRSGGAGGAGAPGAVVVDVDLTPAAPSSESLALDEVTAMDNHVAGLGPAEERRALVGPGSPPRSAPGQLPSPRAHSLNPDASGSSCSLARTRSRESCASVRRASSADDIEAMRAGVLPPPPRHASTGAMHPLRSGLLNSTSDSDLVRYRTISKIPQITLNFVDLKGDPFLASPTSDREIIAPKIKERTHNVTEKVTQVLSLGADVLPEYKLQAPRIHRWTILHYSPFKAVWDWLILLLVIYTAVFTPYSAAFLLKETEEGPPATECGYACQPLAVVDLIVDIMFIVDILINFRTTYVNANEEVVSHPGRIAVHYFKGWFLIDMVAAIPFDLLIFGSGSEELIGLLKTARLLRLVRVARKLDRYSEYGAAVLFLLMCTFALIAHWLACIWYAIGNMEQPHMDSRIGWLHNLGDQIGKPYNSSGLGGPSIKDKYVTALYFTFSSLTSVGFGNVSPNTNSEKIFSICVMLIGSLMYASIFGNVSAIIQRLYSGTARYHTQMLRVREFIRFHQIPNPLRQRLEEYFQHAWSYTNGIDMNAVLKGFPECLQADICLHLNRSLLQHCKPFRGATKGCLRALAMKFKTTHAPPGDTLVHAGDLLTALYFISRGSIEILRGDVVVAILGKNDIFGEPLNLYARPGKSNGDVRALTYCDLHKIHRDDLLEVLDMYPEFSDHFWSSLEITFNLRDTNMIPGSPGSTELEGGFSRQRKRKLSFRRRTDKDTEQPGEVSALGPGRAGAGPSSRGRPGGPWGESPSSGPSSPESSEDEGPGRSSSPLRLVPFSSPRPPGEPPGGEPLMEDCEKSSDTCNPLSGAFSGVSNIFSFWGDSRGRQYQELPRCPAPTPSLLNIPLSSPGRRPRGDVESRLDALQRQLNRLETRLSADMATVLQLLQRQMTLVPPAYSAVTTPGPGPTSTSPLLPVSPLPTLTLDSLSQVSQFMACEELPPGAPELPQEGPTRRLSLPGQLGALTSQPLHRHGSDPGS
Mitogen-activated protein kinase 14, sequence (Q16539 whole entry): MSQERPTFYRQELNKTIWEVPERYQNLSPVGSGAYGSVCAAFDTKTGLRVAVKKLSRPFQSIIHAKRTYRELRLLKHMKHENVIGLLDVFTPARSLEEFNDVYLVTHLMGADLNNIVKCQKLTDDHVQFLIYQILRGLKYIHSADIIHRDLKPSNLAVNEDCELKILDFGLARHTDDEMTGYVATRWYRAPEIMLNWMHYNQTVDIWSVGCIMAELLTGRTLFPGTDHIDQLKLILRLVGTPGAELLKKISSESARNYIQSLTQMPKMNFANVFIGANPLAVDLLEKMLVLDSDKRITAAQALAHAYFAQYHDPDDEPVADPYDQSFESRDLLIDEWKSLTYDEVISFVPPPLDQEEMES
Mitogen-activated protein kinase 9, sequence (P45984 whole entry): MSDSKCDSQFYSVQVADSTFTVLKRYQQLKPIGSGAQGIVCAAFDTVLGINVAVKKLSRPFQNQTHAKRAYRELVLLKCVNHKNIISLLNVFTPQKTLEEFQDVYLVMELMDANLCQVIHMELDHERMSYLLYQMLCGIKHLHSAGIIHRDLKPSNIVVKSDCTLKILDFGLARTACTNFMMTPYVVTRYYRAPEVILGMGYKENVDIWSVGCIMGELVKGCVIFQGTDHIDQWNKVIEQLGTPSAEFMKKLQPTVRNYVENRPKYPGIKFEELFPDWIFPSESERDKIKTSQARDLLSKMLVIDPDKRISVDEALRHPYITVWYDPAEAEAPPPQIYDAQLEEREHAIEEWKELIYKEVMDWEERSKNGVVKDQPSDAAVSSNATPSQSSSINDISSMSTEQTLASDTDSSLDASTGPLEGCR
CYP2C9, sequence (P11712 whole entry): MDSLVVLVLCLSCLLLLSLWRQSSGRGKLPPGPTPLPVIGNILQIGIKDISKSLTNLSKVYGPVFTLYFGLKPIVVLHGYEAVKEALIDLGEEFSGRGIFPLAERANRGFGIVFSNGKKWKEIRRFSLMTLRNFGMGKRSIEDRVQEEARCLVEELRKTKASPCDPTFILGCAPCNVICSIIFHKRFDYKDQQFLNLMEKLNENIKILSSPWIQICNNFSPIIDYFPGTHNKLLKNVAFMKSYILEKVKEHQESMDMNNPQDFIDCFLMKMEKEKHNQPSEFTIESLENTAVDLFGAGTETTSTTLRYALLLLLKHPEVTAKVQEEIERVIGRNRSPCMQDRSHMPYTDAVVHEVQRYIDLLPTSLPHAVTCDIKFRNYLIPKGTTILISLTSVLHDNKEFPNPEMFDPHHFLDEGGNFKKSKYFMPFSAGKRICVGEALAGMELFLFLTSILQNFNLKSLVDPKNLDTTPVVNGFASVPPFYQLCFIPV
CYP2D6, sequence (P10635 whole entry): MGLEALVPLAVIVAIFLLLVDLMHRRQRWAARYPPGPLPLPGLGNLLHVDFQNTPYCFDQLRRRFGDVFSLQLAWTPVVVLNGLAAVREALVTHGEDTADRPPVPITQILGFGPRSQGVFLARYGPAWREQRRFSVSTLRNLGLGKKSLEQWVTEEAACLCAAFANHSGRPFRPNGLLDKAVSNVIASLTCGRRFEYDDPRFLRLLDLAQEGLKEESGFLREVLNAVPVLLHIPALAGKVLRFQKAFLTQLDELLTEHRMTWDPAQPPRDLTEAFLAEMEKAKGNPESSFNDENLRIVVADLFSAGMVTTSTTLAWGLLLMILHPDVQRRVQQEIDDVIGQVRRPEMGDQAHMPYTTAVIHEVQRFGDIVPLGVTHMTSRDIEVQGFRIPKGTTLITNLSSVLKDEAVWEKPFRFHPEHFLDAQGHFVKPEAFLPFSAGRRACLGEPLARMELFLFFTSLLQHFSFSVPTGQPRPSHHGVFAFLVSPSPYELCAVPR
CYP3A4, sequence (P08684 whole entry): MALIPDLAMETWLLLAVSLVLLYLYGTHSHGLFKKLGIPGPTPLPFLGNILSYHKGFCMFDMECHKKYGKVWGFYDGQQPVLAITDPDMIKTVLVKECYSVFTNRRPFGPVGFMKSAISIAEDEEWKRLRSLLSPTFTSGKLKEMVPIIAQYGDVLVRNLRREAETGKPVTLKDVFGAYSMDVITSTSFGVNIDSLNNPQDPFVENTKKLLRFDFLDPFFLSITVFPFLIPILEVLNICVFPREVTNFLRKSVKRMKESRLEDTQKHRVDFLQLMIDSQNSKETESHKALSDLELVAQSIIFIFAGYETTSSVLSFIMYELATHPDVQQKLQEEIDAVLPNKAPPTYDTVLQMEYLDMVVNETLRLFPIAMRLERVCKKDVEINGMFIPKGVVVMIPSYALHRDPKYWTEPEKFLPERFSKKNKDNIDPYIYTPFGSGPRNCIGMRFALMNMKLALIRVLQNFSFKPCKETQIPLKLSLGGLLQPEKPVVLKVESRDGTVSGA

In series [1], `CNC(=O)c1cc(-n2ncc3cc(Oc4ccccc4Cl)ccc32)cs1` yielded a 50% inhibitory concentration (IC50) of 1020 nM. Also, the half-life amounted to 15 min in series [2] and 72 min in [3]. The Cell viability in the series with SH-SY5Y worked out at 94%.

On to `O=C(N[C@H]1CCOC1)c1cc(-n2ncc3cc(Nc4ccccc4Cl)c(F)cc32)cs1`, for which the results for the Ratio IC50 in [4] and in [6] were 12 and 89, respectively. The 50% inhibitory concentration (IC50) in series [5] came out at 2 nM; in series [7] it was 24 nM; in series [8], 178 nM.

With `O=C(NC1COC1)c1cc(-n2ncc3nc(Nc4ccccc4Cl)ccc32)cs1`, in series [5], the IC50 was 100 nM.

`Cc1nc2c(cnn2-c2csc(C(=O)NC3COC3)c2)cc1Nc1cc(F)ccc1Cl`: the IC50 is 1070 nM in [5], 2890 nM in series [7] and greater than 10000 nM in [8].

Take `Cc1nc2c(cnn2-c2csc(C(=O)NC3COC3)c2)cc1Nc1ccc(F)cc1Cl`: the Ratio IC50 is 6 in [4] and 76 in series [6]. In addition, the results for the IC50 in [5], in series [7] and in [8] were 79 nM, 490 nM and 6000 nM, respectively.

Regarding `O=C(NC1COC1)c1cc(-n2ncc3cc(Nc4ccccc4Cl)ncc32)cs1`, the Ratio IC50 in [4] was determined as 17; in series [6], 139. Also, the values for the IC50 in [5], in series [7] and in series [8] were 5 nM, 86 nM and 690 nM, respectively.

On to `CNC(=O)c1cc(-n2ncc3cc(Nc4ccccc4Cl)c(OC)cc32)cs1`, for which the Ratio IC50 turned out to be 8 in series [4] and 55 in [6]. The half-maximal inhibitory concentration (IC50) in [5] turned out to be 20 nM; in series [7], 160 nM; in series [8] it was 1100 nM.

`CNC(=O)c1cc(-n2ncc3cc(Nc4c(F)cccc4Cl)cnc32)cs1`: the IC50 in series [1] was 52 nM; in series [5], 2 nM; in series [7], 106 nM; in series [8], 213 nM. The figures for the half-life in series [2] and in [3] were 22 min and 30 min, respectively. In the series with SH-SY5Y, the Cell viability came out at 104%.

As for `CC(=O)N1CC[C@H](NC(=O)c2cc(-n3ncc4cc(Nc5ccccc5Cl)c(F)cc43)cs2)C1`, the Ratio IC50 in series [4] was 16; in series [6] it was 132. In addition, the half-maximal inhibitory concentration (IC50) in series [5] was 4 nM; in series [7], 65 nM; in series [8], 627 nM.

With `O=C(NC1CCOCC1)c1cc(-n2ncc3cc(Nc4ccccc4Cl)c(F)cc32)cs1`, the Ratio IC50 in [4] was found to be 24; in series [6] it was 60. Besides, the IC50 in [5] is 2 nM; in series [7] it was 47 nM; in series [8], 120 nM.

Consider `CC(C)N1CC[C@@H](NC(=O)c2cc(-n3ncc4cc(Nc5ccccc5Cl)ccc43)cs2)C1`, for which the figures for the Ratio IC50 in series [4] and in series [6] were 10 and 27, respectively. Moreover, the IC50 in series [5] was determined as 31 nM; in [7], 325 nM; in series [8], 825 nM.

Take `O=C(NCC(F)F)c1cc(-n2ncc3cc(Nc4ccccc4Cl)c(F)cc32)cs1`: the Ratio IC50 in series [4] was found to be 12; in series [6], 83. The IC50 in series [5] worked out at 4 nM; in series [7] it was 46 nM; in [8], 333 nM.

As for `CNC(=O)c1cc(-n2ncc3cc(Nc4cccc(OC)c4Cl)c(C)nc32)cs1`, the 50% inhibitory concentration (IC50) in [5], in series [7] and in [8] was greater than 10000 nM throughout.

Regarding `[2H]C([2H])([2H])N1CC[C@H](NC(=O)c2cc(-n3ncc4cc(Nc5ccccc5Cl)c(F)cc43)cs2)C1`, the 50% inhibitory concentration (IC50) in series [5] was 5 nM; in [7] it was 300 nM; in [9], less than 1000 nM; in [8], 285 nM.

As for `CN1CC[C@H](NC(=O)c2cc(-n3ncc4cc(Nc5ccccc5Cl)ccc43)cs2)C1`, the Ratio IC50 worked out at 226 in series [4] (tested as the 2H-labelled form) and 263 in series [6] (tested as the 2H-labelled form).

Turning to `COCCNC(=O)c1cc(-n2ncc3cc(Nc4ccccc4Cl)c(F)cc32)cs1`, the results for the Ratio IC50 in series [4] and in [6] were 14 and 56, respectively. Also, the IC50 in [5] stood at 3 nM; in [7], 41 nM; in series [8], 169 nM.

As for `CNC(=O)c1cc(-n2ncc3cc(Nc4c(F)cccc4OC)c(F)cc32)cs1`, the Ratio IC50 in series [4] was found to be 13; in series [6], 248. Further, the IC50 was determined as 5 nM in series [5], 65 nM in [7] and 1240 nM in [8].

`CNC(=O)c1cc(-n2ncc3nc(Nc4ccccc4Cl)ncc32)cs1` registered a concentration for half-maximal inhibition (IC50) in series [5] of 1000 nM.

On to `Cc1nc2c(cnn2-c2csc(C(=O)NC3COC3)c2)cc1Nc1cccc(F)c1Cl`, for which the Ratio IC50 is 8 in series [4] and greater than 59 in series [6]. Further, the 50% inhibitory concentration (IC50) is 169 nM in series [5], 1420 nM in series [7] and greater than 10000 nM in series [8].

As for `O=C(Nc1cnn(-c2cccc(C(=O)Nc3cnn(C4CCNC4)c3)c2)c1)Nc1ccccc1Cl` (centres undefined), the half-inhibitory concentration (IC50) is less than 1 nM in series [5] and greater than 20000 nM in series [7].

For `[2H]C([2H])([2H])N1CC[C@H](NC(=O)c2cc(-n3ncc4cc(Nc5ccccc5Cl)ccc43)cs2)C1`, the IC50 in series [5] is 1 nM; in [7], 226 nM; in series [9], less than 1000 nM; in [8] it was 263 nM.

On to `O=C(Nc1cnn(-c2csc(C(=O)NC3COC3)c2)c1)Nc1ccccc1Cl`, for which, in the series with SH-SY5Y, the Cell viability is recorded as 104%. For the same molecule, the 50% inhibitory concentration (IC50) was greater than 20000 nM in [7] and greater than 30000 nM in series [9].

For `CC(C)NC(=O)c1cc(-n2ncc3cc(Nc4ccccc4Cl)c(F)cc32)cs1`, the Ratio IC50 in series [4] came to 62; in series [6], 200. Also, the concentration for half-maximal inhibition (IC50) in series [5] is 2 nM; in series [7], 124 nM; in series [8], 400 nM.

Take `CNC(=O)c1cc(-n2ncc3cc(Nc4c(F)cccc4Cl)ncc32)cs1`: the values for the Ratio IC50 in series [4], in series [6] and in series [10] were 28, 130 and 37, respectively. Also, the half-maximal inhibitory concentration (IC50) was 74 nM in [1], 2 nM in series [5], 57 nM in series [7] and 260 nM in [8].

Regarding `CN1CC[C@H](NC(=O)c2cc(-n3ncc4cc(Nc5ccccc5Cl)c(F)cc43)cs2)C1`, the Ratio IC50 in [4] (tested as the 2H-labelled form) turned out to be 60; in series [6] (tested as the 2H-labelled form), 57.

For the molecule `O=C(NC1COC1)c1cc(-n2ncc3cc(Nc4ccccc4Cl)c(F)cc32)cs1`, the Ratio IC50 in [4] worked out at 29; in [6], 75; in [10], 95. Also, the inhibition at 10 µM is -56% on CYP3A4, 4% at CYP1A2, 41% on CYP2C9 and -16% at CYP2D6. Also, the IC50 in series [1] was 1330 nM; in [5] it was 14 nM; in series [7], 400 nM; in [8], 1050 nM. In addition, the half-life in series [2] was determined as 20 min; in series [3], 92 min. Further, the Cell viability in the series on SH-SY5Y came out at 98%.

Consider `O=C(NC1CC1)c1cc(-n2ncc3cc(Nc4ccccc4Cl)c(F)cc32)cs1`, for which the figures for the Ratio IC50 in series [4] and in [6] were 14 and 150, respectively. Moreover, the IC50 in [5] is 1 nM; in series [7] it was 14 nM; in [8], 150 nM.

On to `CNC(=O)c1cc(-n2ncc3cc(Nc4c(F)cccc4Cl)c(F)cc32)cs1`, for which the figures for the Ratio IC50 in series [4], in series [6] and in series [10] were 12, 129 and 15, respectively. The IC50 in series [1] was determined as 29 nM; in series [5], 2 nM; in series [7] it was 24 nM; in series [8] it was 258 nM.
